Assay results from patent publication US20140314780A1, “Compositions Using Antibodies Directed to GPNMB and Uses Thereof” (Celldex Therapeutics, Inc., priority 2008, published 2014).

What was measured:
[1] = tested on: MART-1, TYRP-2, TYRP-1, PMEL17, MAGEA1, MCSP, MTf, MCAM; conditions: melanoma cell lines, U0126 20 μM, 48 hours (FIG. 5)
Experimental: Cells were seeded in 6-well tissue culture dishes at a subconfluent density and allowed to attach overnight. For harvesting cell lysates, media was removed, cells were briefly washed with serum-free media and then 1× Tris-glycine SDS sample buffer (Invitrogen, Carlsbad, Calif.) supplemented with 10 mM dithiothreitol (Sigma) was added directly to the wells. Cell lysates were then collected and boiled for 10 minutes. For preparing conditioned media, drug treatments were performed in a minimum volume of growth media (1.5 mL/well). Following 48 hours of incubation, conditioned media was collected, briefly microfuged, mixed with an equal volume of 2× Tris-glycine SDS sample buffer (Invitrogen, Carlsbad, Calif.) supplemented with 20 mM dithiothreitol (Sigma) and boiled for 10 minutes. For cell lysates, samples were quantified and an equal quantity of protein/lane was resolved on 4-20% gradient polyacrylamide gels (Invitrogen) and then transferred to nitrocellulose filters (Invitrogen). The volume of conditioned media loaded/lane was adjusted based on the protein concentration determined in the respective cell lysates. […]

SKMEL2 cells = SKMEL2 cells (FIG. 4C)
Experimental: Cells were seeded in tissue culture dishes at a subconfluent density and allowed to attach overnight. The following day, cells were treated with or without U0126 (1 μM) diluted in growth media and incubated for 48 hours. […] After incubation, photomicrographs were taken and adherent cells were trypsinized, mixed with trypan blue dye and counted on a haemocytometer. Only viable cells which excluded trypan blue were counted. For SKMEL2, cells were seeded in 96-well plates after U0126 treatment and assayed after 72 h using the CellTiter-Glo assay according to the manufacturer's instructions (Promega, Madison, Wis.).

N#CC(=C(/N)Sc1ccccc1N)/C(C#N)=C(\N)Sc1ccccc1N [Mab U0126]
expression of MART-1, TYRP-2, TYRP-1, PMEL17 [1]: induced by MEK inhibition in some cell lines | expression of other targets (MAGEA1, MCSP) [1]: either were not effected or even decreased | sensitization to CR011-vcMMAE by pretreatment (SKMEL2 cells): sensitized
